Experimental data from patent publication US9125913B2, “Bcl-2-selective apoptosis-inducing agents for the treatment of cancer and immune diseases” (AbbVie Inc., priority 2008, dated 2015).

These compounds were tested on GST-Bcl-2 (assay: TR-FRET binding assay, Bcl-2). Details: TR-FRET Ki values.
Outline: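 Compounds serially diluted in DMSO from 50 μM (2× starting concentration, 10% DMSO), mixed with GST-tagged protein, F-Bak peptide probe and Tb-labeled antibody, incubated 3 h at room temperature.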

Compound | Binding selectivity ratio (Bcl-XL Ki/Bcl-2 Ki)
COCCNc1ccc(S(=O)(=O)NC(=O)c2ccc(N3CCN(CC4=C(c5ccc(Cl)cc5)CC(C)(C)CC4)CC3)cc2Oc2ccc3[nH]ccc3c2)cc1S(=O)(=O)C(F)(F)F [EXAMPLE 315, 4-(4-{[2-(4-chlorophenyl)-4,4-dimethylcyclohex-1-en-1-yl]methyl}piperazin-1-yl)-2-(1H-indol-5-yloxy)-N-({4-[(2-methoxyethyl)amino]-3-[(trifluoromethyl)sulfonyl]phenyl}sulfonyl)benzamide] | >190.7
CC1(C)CCC(CN2CCN(c3ccc(C(=O)NS(=O)(=O)c4ccc(OCCCS(C)(=O)=O)c([N+](=O)[O-])c4)c(Oc4cccc5[nH]ccc45)c3)CC2)=C(c2ccc(Cl)cc2)C1 [EXAMPLE 316, 4-(4-{[2-(4-chlorophenyl)-4,4-dimethylcyclohex-1-en-1-yl]methyl}piperazin-1-yl)-2-(1H-indol-4-yloxy)-N-({4-[3-(methylsulfonyl)propoxy]-3-nitrophenyl}sulfonyl)benzamide] | 533.7
COCCCNc1ccc(S(=O)(=O)NC(=O)c2ccc(N3CCN(CC4=C(c5ccc(Cl)cc5)CC(C)(C)CC4)CC3)cc2Oc2ccc3[nH]ccc3c2)cc1[N+](=O)[O-] [EXAMPLE 317, 4-(4-{[2-(4-chlorophenyl)-4,4-dimethylcyclohex-1-en-1-yl]methyl}piperazin-1-yl)-2-(1H-indol-5-yloxy)-N-({4-[(3-methoxypropyl)amino]-3-nitrophenyl}sulfonyl)benzamide] | >235.9
COCCCNc1ccc(S(=O)(=O)NC(=O)c2ccc(N3CCN(CC4=C(c5ccc(Cl)cc5)CC(C)(C)CC4)CC3)cc2Oc2cccc3[nH]ccc23)cc1[N+](=O)[O-] [EXAMPLE 318, 4-(4-{[2-(4-chlorophenyl)-4,4-dimethylcyclohex-1-en-1-yl]methyl}piperazin-1-yl)-2-(1H-indol-4-yloxy)-N-({4-[(3-methoxypropyl)amino]-3-nitrophenyl}sulfonyl)benzamide] | 102.6
CC1(C)CCC(CN2CCN(c3ccc(C(=O)NS(=O)(=O)c4ccc(NCCC#N)c([N+](=O)[O-])c4)c(Oc4ccc5[nH]ccc5c4)c3)CC2)=C(c2ccc(Cl)cc2)C1 [EXAMPLE 319, 4-(4-{[2-(4-chlorophenyl)-4,4-dimethylcyclohex-1-en-1-yl]methyl}piperazin-1-yl)-N-({4-[(2-cyanoethyl)amino]-3-nitrophenyl}sulfonyl)-2-(1H-indol-5-yloxy)benzamide] | 503.4
CC1(C)CCC(CN2CCN(c3ccc(C(=O)NS(=O)(=O)c4ccc(NCCC#N)c([N+](=O)[O-])c4)c(Oc4cccc5[nH]ccc45)c3)CC2)=C(c2ccc(Cl)cc2)C1 [EXAMPLE 320, 4-(4-{[2-(4-chlorophenyl)-4,4-dimethylcyclohex-1-en-1-yl]methyl}piperazin-1-yl)-N-({4-[(2-cyanoethyl)amino]-3-nitrophenyl}sulfonyl)-2-(1H-indol-4-yloxy)benzamide] | 103.6
CC1(C)CCC(CN2CCN(c3ccc(C(=O)NS(=O)(=O)c4ccc(NCC56CC7CC(C5)C(O)[C@H](C7)C6)c([N+](=O)[O-])c4)c(Oc4ccc5[nH]ccc5c4)c3)CC2)=C(c2ccc(Cl)cc2)C1 (stereo partly drawn) [EXAMPLE 321, 4-(4-{[2-(4-chlorophenyl)-4,4-dimethylcyclohex-1-en-1-yl]methyl}piperazin-1-yl)-N-{[4-({[(3R)-4-hydroxy-1-adamantyl]methyl}amino)-3-nitrophenyl]sulfonyl}-2-(1H-indol-5-yloxy)benzamide] | >957.9
CC1(C)CCC(CN2CCN(c3ccc(C(=O)NS(=O)(=O)c4ccc(NCCC(F)(F)F)c([N+](=O)[O-])c4)c(Oc4cccc5[nH]ccc45)c3)CC2)=C(c2ccc(Cl)cc2)C1 [EXAMPLE 323, 4-(4-{[2-(4-chlorophenyl)-4,4-dimethylcyclohex-1-en-1-yl]methyl}piperazin-1-yl)-2-(1H-indol-4-yloxy)-N-({3-nitro-4-[(3,3,3-trifluoropropyl)amino]phenyl}sulfonyl)benzamide] | >695.2
